The values below come from article PMC11345829, “Discovery of Potent Isoquinolinequinone N-Oxides to Overcome Cancer Multidrug Resistance” (Journal of Medicinal Chemistry, 2024).

Assay [1] has as its system NCI-H460. Briefly: NCI60 five-dose GI50 (NCI data). The class given is cell-based. Particulars: Homo sapiens, NCI data provided for comparison, read-out: NSCLC NCI-H460 GI50 (NCI). From the text: The concentration−response curve generated enables the determination of three criteria, GI50 (drug concentration at which 50% of cell growth is inhibited), total growth inhibition (TGI) and LC50 (drug concentration at which 50% of tumor cells are killed) which can be used to compare effectiveness against any compound tested in the screen since its inception.
S2.1 NCI Screening Assay Experimental details
NCI Screening Assay Experimental: Cancer cell growth assays (NCI60 screening) 5,6 One-dose study: Tested compounds were initially solubilised in DMSO, diluted into RPMI 1640 and 5% fetal bovine serum/L-glutamine, and added to 96-well plates containing cell lines previously cultured for 24 h. After 48 h incubation, the media were removed, and the cells were fixed and stained with sulforhodamine B to determine overall percent growth/ total protein content. Unbound dye was removed with five washes of 1% acetic acid, and the plates were allowed to air dry. The dye was then resolubilised in Tris buffer, and the colorimetric absorbance was measured (515 nm). Growth inhibition was measured relative to the response generated from proliferating cells cultured under identical conditions for 48 h. Data from one-dose experiments pertains to the percentage growth at […]
Five-dose study: Serial 5 × 10-fold dilution from an initial DMSO stock solution was performed, prior to incubation at each individual concentration (10 nM, 100 nM, 1 μM, 10 μM and 100 μM). Using seven absorbance measurements (time zero (Tz), control growth (C), and test growth in the presence of drug at the five concentration levels (Ti)), the percentage growth was calculated at each of the drug concentrations levels. Percentage growth inhibition was calculated as: [(Ti − Tz)/(C − Tz)] × 100 for concentrations for which Ti ≥ Tz, [(Ti − Tz)/Tz] × 100 for concentrations for which Ti < Tz. Three dose response parameters were calculated for each experimental agent. […]
was calculated from [(Ti − Tz)/(C − Tz)] × 100 = 50, which is the drug concentration resulting in a 50% reduction in the net protein increase (as measured by sulforhodamine B staining) in control cells during the drug incubation. The drug concentration resulting in total growth inhibition (TGI) was calculated from Ti = Tz. The LC50 (concentration of drug resulting in a 50% reduction in the measured protein at the end of the drug treatment as compared to that at the beginning) indicating a net loss of cells following treatment was calculated from [(Ti − Tz)/Tz] × 100 = −50. Values were calculated for each of these three parameters if the level of activity was reached; however, if the effect was not reached or was exceeded, the value for that parameter was expressed as greater or less than the maximum or minimum concentration tested.

Assay [2] relates to NCI-H460. Briefly: SRB cell growth inhibition assay. Conditions: Homo sapiens, 48 h, NSCLC sensitive, mean ± SEM. The class given is cell-based. From the text:
(§1) Taking into consideration the promising results of preliminary NCI screening, nine compounds (1, 2, 3, 4, 5, 20, 23, 24, 25) were selected for further screening in two counterpart pairs of sensitive and MDR cell lines. […] Two distinct pairs of counterpart drug-sensitive and MDR human tumor cell lines were used, namely the non-small lung cancer (NSCLC) NCI-H460 (same cell line as in the NCI screen) and its MDR counterpart cell line NCI-H460/R and the colorectal cancer DLD1 and its MDR counterpart cell line DLD1-TxR (Table 3). The screening was performed using the SRB assay, and the GI50 for each compound was determined by interpolation on the attained concentration−response curves and compared with NCI60 screening data (SI, Figures S62−S63; Table S21).
(§2) Two pairs of drug-sensitive and multidrug-resistant (MDR) cell lines from human nonsmall cell lung cancer (NSCLC), NCI-H460 and NCI-H460/R, and colorectal cancer, DLD1 and DLD1-TxR, kindly provided by Dr M. Pešić (Belgrade, Serbia), were used to evaluate the growth inhibition potential of the compounds 1, 2, 3, 4, 5, 20, 23, 24, an 25.[76],[77] Additionally, growth inhibition assays were performed with compound 25 on two other NSCLC cell lines, A549 and NCI-H322, obtained from the American Type Culture Collection (ATCC) and the European Collection of Authenticated Cell Cultures, respectively. The A549 cell line was maintained in Dulbecco’s Modified Eagle Medium (DMEM) supplemented with 4.5 g/L Glucose with UltraGlutamine with sodium pyruvate (Lonza, Basel Stücki, Switzerland), enriched with 10% fetal bovine serum (FBS; Biowest, Nuaillé, France). The lung fibroblast MRC-5 cell line and the remaining NSCLC and colorectal cancer cell lines were cultured in Roswell Park Memorial Institute (RPMI) 1640 (with stable glutamine and 25 mM HEPES) medium (Biowest), supplemented with 10% fetal bovine serum. […] For the sulforhodamine B (SRB) and 3D cell culture assays, the media were supplemented with 5% FBS. The remaining experiments were performed with medium supplemented with 10% FBS.
(§3) Cells were seeded at a previously determined optimal cell concentration (5.0 × 10^4 cells/mL for NSCLC cells and the nontumorigenic MRC-5 cell line and 1.0 × 10^5 cells/mL for colorectal cancer cells) and incubated at 37 °C for 24 h. […] The SRB assay was performed as previously described.[78],[79] Briefly, after fixing cells with 10% (w/v) ice-cold trichloroacetic acid (Merck Life Science), the proteins were stained with 0.4% of SRB (Merck Life Science) in acetic acid (Merck Life Science). Following washing steps in acetic acid, the bound dye was solubilized with 10 mM Tris base solution (Merck Life Science). Absorbance was measured at 510 nm in a multiplate reader (Synergy Mx, Biotek Instruments Inc., Winooski, Vermont, USA) using the Gen5 software (Biotek Instruments Inc.).

Another assay concerns DLD1. Briefly: SRB cell growth inhibition assay. The class given is cell-based. Particulars: Homo sapiens, DLD-1, 48 h, colorectal cancer sensitive, mean ± SEM.
Description: as §1, §2, §3

Assay [3] concerns NCI60 tumor cell line panel. The arrangement: method as in PMID 31894828. Conditions: against 53 human tumor cell lines; cited from earlier work.
The test system of a further assay is DLD1-TxR. The assay can be described thus: SRB cell growth inhibition assay. It is filed as cell-based, human. The protocol: Two distinct pairs of counterpart drug-sensitive and MDR human tumor cell lines were used, namely the non-small lung cancer (NSCLC) NCI-H460 (same cell line as in the NCI screen) and its MDR counterpart cell line NCI-H460/R and the colorectal cancer DLD1 and its MDR counterpart cell line DLD1-TxR (Table 3). The screening was performed using the SRB assay, and the GI50 for each compound was determined by interpolation on the attained concentration−response curves and compared with NCI60 screening data (SI, Figures S62−S63; Table S21).
as §2, §3

Another assay concerns NCI-ADR/RES. More on the design: method as in PMID 31894828. Particulars: MDR cell line, high P-gp; read-out: growth inhibition (GI50) NCI/ADR-RES; cited from earlier work.
The next assay deals with NCI-H460/R. The assay can be described thus: SRB cell growth inhibition assay. It is filed as cell-based, human. On the procedure: Two distinct pairs of counterpart drug-sensitive and MDR human tumor cell lines were used, namely the non-small lung cancer (NSCLC) NCI-H460 (same cell line as in the NCI screen) and its MDR counterpart cell line NCI-[…] and the colorectal cancer DLD1 and its MDR counterpart cell line DLD1-TxR (Table 3). The screening was performed using the SRB assay, and the GI50 for each compound was determined by interpolation on the attained concentration-response curves and compared with NCI60 screening data (SI, Figures S62-S63; Table S21). Two pairs of drug-sensitive and multidrug-resistant (MDR) cell lines from human nonsmall cell lung cancer (NSCLC), NCI-H460 and NCI-[…], and colorectal cancer, DLD1 and DLD1-TxR, kindly provided by Dr M. […] The A549 cell line was maintained in Dulbecco's Modified Eagle Medium (DMEM) supplemented with 4.5 g/L Glucose with UltraGlutamine with sodium pyruvate (Lonza, Basel Stücki, Switzerland), enriched with 10% fetal bovine serum (FBS; Biowest, Nuaillé, France). […] For the sulforhodamine B (SRB) and 3D cell culture assays, the media were supplemented with 5% FBS. The remaining experiments were performed with medium supplemented with 10% FBS. […] The SRB assay was performed as previously described.[78],[79] Briefly, after fixing cells with 10% (w/v) ice-cold trichloroacetic acid (Merck Life Science), the proteins were stained with 0.4% of SRB (Merck Life Science) in acetic acid (Merck Life Science). Following washing steps in acetic acid, the bound dye was solubilized with 10 mM Tris base solution (Merck Life Science). Absorbance was measured at 510 nm in a multiplate reader (Synergy Mx, Biotek Instruments Inc., Winooski, Vermont, USA) using the Gen5 software (Biotek Instruments Inc.).

Regarding `COC(=O)c1c2c(c(C)[n+]([O-])c1C)C(=O)C(NCc1ccccc1)=CC2=O` [Compound 1], the GI50 was 2720 nM in the assay on NCI-H460 [1]; 3060 ± 150 nM in the assay with NCI-H460 [2]; 4890 ± 510 nM with DLD1; 2520 nM in assay [3]; 2970 ± 130 nM with DLD1-TxR (Homo sapiens, SRB assay, 48 h, colorectal cancer MDR, mean ± SEM); 2670 nM with NCI-ADR/RES. Moreover, the GI50 in the assay on NCI-H460/R (Homo sapiens, NCI-H460, SRB assay, 48 h, NSCLC MDR, mean ± SEM) was found to be 2290 ± 280 nM. Further, the “selectivity ratio colorectal cancer” value in the assay with DLD1-TxR (GI50 sensitive DLD1 / GI50 MDR DLD1-TxR) came to 1.7. Also, the “selectivity ratio NSCLC” value with NCI-H460/R (GI50 sensitive NCI-H460 / GI50 MDR NCI-H460/R) turned out to be 1.3.
